Columns and labels:
[1] = system: normal NK cells expanded with K562-aAPC; experiment: percent inhibition of viability; higher = more inhibition; details: 72 h, IL-2 2.5 ng/mL
Experimental: (§1)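 Drug sensitivity and resistance testing on K562-aAPC-expanded normal NK cells: 5 concentrations (10-fold steps over a 10,000-fold range), 72 h at 37 °C, viability by CellTiter-Glo normalised to DMSO and benzethonium chloride controls; DSS from the fitted curve.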

DERL-7 (IL-2 2.5 ng/mL) [2] = experiment: as above; details: 72 h
IMC-1 (IL-2 20 ng/mL) [3] = experiment: as above; details: 72 h
KAI3 (IL-2 2.5 ng/mL) [4] = experiment: as above; details: 72 h
KHYG-1 (IL-2 2.5 ng/mL) [5] = experiment: as above; details: 72 h
NK-92 (IL-2 2.5 ng/mL) [6] = experiment: as above; details: 72 h
NK-YS (IL-2 2.5 ng/mL) [7] = experiment: as above; details: 72 h
NKL (IL-2 2.5 ng/mL) [8] = experiment: as above; details: 72 h
SNK-6 (IL-2 2.5 ng/mL) [9] = experiment: as above; details: 72 h
YT (IL-2 2.5 ng/mL) [10] = experiment: as above; details: 72 h
[11] = system: normal primary NK cells, pool 1 (3 donors) (IL-2 2.5 ng/mL); experiment: as above; details: 72 h
[12] = system: normal primary NK cells, pool 1 (3 donors), resting (IL-2 0 ng/mL); experiment: as above; details: 72 h
[13] = system: normal primary NK cells, pool 2 (3 donors) (IL-2 2.5 ng/mL); experiment: as above; details: 72 h
[14] = system: normal primary NK cells, pool 3 (3 donors) (IL-2 2.5 ng/mL); experiment: as above; details: 72 h
[15] = system: normal NK cells expanded with K562-aAPC; experiment: drug sensitivity score (DSS) (DSS units); higher = more sensitive; extreme values may be limits of the assay; details: 72 h; IL-2 2.5 ng/mL
Experimental: as §1

DERL-7 (IL-2 2.5 ng/mL) [16] = experiment: as above; details: 72 h
IMC-1 (IL-2 20 ng/mL) [17] = experiment: as above; details: 72 h
KAI3 (IL-2 2.5 ng/mL) [18] = experiment: as above; details: 72 h
KHYG-1 (IL-2 2.5 ng/mL) [19] = experiment: as above; details: 72 h
NK-92 (IL-2 2.5 ng/mL) [20] = experiment: as above; details: 72 h
NK-YS (IL-2 2.5 ng/mL) [21] = experiment: as above; details: 72 h
NKL (IL-2 2.5 ng/mL) [22] = experiment: as above; details: 72 h
SNK-6 (IL-2 2.5 ng/mL) [23] = experiment: as above; details: 72 h
YT (IL-2 2.5 ng/mL) [24] = experiment: as above; details: 72 h
[25] = system: normal primary NK cells, pool 1 (3 donors) (IL-2 2.5 ng/mL); experiment: as above; details: 72 h
[26] = system: normal primary NK cells, pool 1 (3 donors), resting (IL-2 0 ng/mL); experiment: as above; details: 72 h
[27] = system: normal primary NK cells, pool 2 (3 donors) (IL-2 2.5 ng/mL); experiment: as above; details: 72 h
[28] = system: normal primary NK cells, pool 3 (3 donors) (IL-2 2.5 ng/mL); experiment: as above; details: 72 h

COc1cc2nccc(Oc3ccc(NC(=O)Nc4cc(C)on4)c(Cl)c3)c2cc1OC [Tivozanib] (max concentration tested 10000 nM)
percent inhibition of viability [%]
Details	1 nM	10 nM	100 nM	1000 nM	10000 nM
DERL-7 (IL-2 2.5 ng/mL) [2]	6.25	-4.07	8.65	3.71	74.2
IMC-1 (IL-2 20 ng/mL) [3]	0.39	1.69	-1.08	4.81	20.3
KAI3 (IL-2 2.5 ng/mL) [4]	0.42	12.7	7.97	8.25	33.2
KHYG-1 (IL-2 2.5 ng/mL) [5]	2.06	3.29	1.48	11.4	50.2
NK-92 (IL-2 2.5 ng/mL) [6]	17.7	7.65	22.3	42.5	71
NK-YS (IL-2 2.5 ng/mL) [7]	-1.25	1.72	3.3	12.8	64.8
NKL (IL-2 2.5 ng/mL) [8]	-0.1	-11	-5.13	8.13	47.4
SNK-6 (IL-2 2.5 ng/mL) [9]	0.59	1.54	-8.58	41.8	65.3
YT (IL-2 2.5 ng/mL) [10]	8.31	9.93	8.18	19.9	61.6
[1]	-1.14	-3.52	-0.12	3.67	-4.22
[11]	-3.27	-5.56	-13	7.21	36.9
[12]	5.37	-0.35	5.84	18.5	67.5
[13]	5.79	7.02	3.11	-2.45	29.2
[14]	8.53	3.31	5.07	0.75	3.16

Details	drug sensitivity score
DERL-7 (IL-2 2.5 ng/mL) [16]	4.63
IMC-1 (IL-2 20 ng/mL) [17]	1.23
KAI3 (IL-2 2.5 ng/mL) [18]	2.57
KHYG-1 (IL-2 2.5 ng/mL) [19]	4.48
NK-92 (IL-2 2.5 ng/mL) [20]	11.5
NK-YS (IL-2 2.5 ng/mL) [21]	5.65
NKL (IL-2 2.5 ng/mL) [22]	3.83
SNK-6 (IL-2 2.5 ng/mL) [23]	8.55
YT (IL-2 2.5 ng/mL) [24]	5.67
[15]	0
[25]	2.94
[26]	6.37
[27]	1.08
[28]	0

CS(=O)(=O)c1ccc(-c2cnc(N)c(C(=O)Nc3ccccc3)n2)cc1 [VE-821] (max concentration tested 10000 nM)
percent inhibition of viability [%]
Details	1 nM	10 nM	100 nM	1000 nM	10000 nM
DERL-7 (IL-2 2.5 ng/mL) [2]	4.33	7.29	1.29	12.9	50.9
IMC-1 (IL-2 20 ng/mL) [3]	-4.03	0.79	-1.04	4.32	67.9
KAI3 (IL-2 2.5 ng/mL) [4]	-6.99	-6.14	7.79	43.5	52
KHYG-1 (IL-2 2.5 ng/mL) [5]	-3.09	-0.84	3.42	23.8	95.3
NK-92 (IL-2 2.5 ng/mL) [6]	-13.2	-3.86	2.78	36	48
NK-YS (IL-2 2.5 ng/mL) [7]	-5.61	-3.96	4.64	25.1	40.2
NKL (IL-2 2.5 ng/mL) [8]	-16.3	-14.8	-15.7	-0.56	24.9
SNK-6 (IL-2 2.5 ng/mL) [9]	3.87	-9.33	-1.01	33.3	52.1
YT (IL-2 2.5 ng/mL) [10]	-4.34	-6.49	-4.51	4.75	9.28
[1]	-5.95	-7.38	-2.06	18.1	32.8
[11]	-1.78	22.5	3.18	5.45	6.99
[12]	9.92	20.7	22.8	23	21.5
[13]	-7.66	8.41	7.62	7.68	15.6
[14]	-3.66	1.35	5.12	0.23	15.6

Details	drug sensitivity score
DERL-7 (IL-2 2.5 ng/mL) [16]	4.71
IMC-1 (IL-2 20 ng/mL) [17]	4.37
KAI3 (IL-2 2.5 ng/mL) [18]	8.88
KHYG-1 (IL-2 2.5 ng/mL) [19]	8.93
NK-92 (IL-2 2.5 ng/mL) [20]	7.01
NK-YS (IL-2 2.5 ng/mL) [21]	4.96
NKL (IL-2 2.5 ng/mL) [22]	0.89
SNK-6 (IL-2 2.5 ng/mL) [23]	6.77
YT (IL-2 2.5 ng/mL) [24]	0
[15]	3.68
[25]	0
[26]	0
[27]	0.62
[28]	0.29

From the supplement of paper PMC5908809
